Measurements as given in paper PMC7595425 (PLoS ONE, 2020).
Where “and” joins values, the source holds several entries; their conditions need not be identical. Equal entries are not always repeated.

What was measured:
P-gp [1] = target: T1, P-gp (Homo sapiens, UniProt P08183); assay: Efflux rate assay using P-gp-overexpressing LLC-GA5-CoL150 cells; format: in vitro ADME; design: host or cells: LLC-GA5-CoL150 (derivative of LLC-PK1 kidney epithelial cells)
Method: Efflux assay with LLC-GA5-CoL150 cells was performed as previously described, with some modifications. […] The cells were incubated for 30 min at 4°C, washed twice with ice-cold D-PBS(-), and further incubated in Opti-MEM® for 10 min at 37°C. The cells were then washed three times with ice-cold D-PBS(-), dried, and lysed by adding 200 μL of 0.1 N NaOH solution. […] The efflux rate was calculated according to the following formula.
Effluxrate(pmol/min/mgprotein)={Initialuptakeofpimozide(pmol/mgprotein)−Residualamountofpimozideafter10minincubation(pmol/mgprotein)}/10(min)
Protein was determined colorimetrically using DCTM Protein Assay (BIO-RAD, Hercules, CA), based on absorbance measurement at 700 nm with a microplate reader, Sunrise Rainbow RC (Tecan, Kanagawa, Japan). An aliquot of cell lysate was mixed with 300 μL of ethyl acetate for 10 min in the cold, then 100 μL of the organic phase was taken and evaporated. The residue was dissolved in 300 μL of mobile phase. All samples were applied to MultiScreen® Solvent Filter Plates 0.45 μm Low-Binding Hydrophilic PTFE (Merck, Ireland) and centrifuged at 3,500 rpm for 20 min at 4°C.
To estimate the kinetic parameters of carrier-mediated transport in the efflux assays, the transport rate (J) was fitted to the following Eq (1), containing saturable and nonsaturable-linear terms, by using the nonlinear least-squares regression analysis program, MULTI, as previously reported. J=Jmax×[S]/(Kt+[S])+kd×[S] (1) Where Jmax is the maximum transport rate for the carrier-mediated transport, [S] is the substrate concentration, Kt is the half-saturation concentration, and kd is the first-order rate constant.

[2] = in combination with sertraline; cited from earlier work
[3] = Bidirectional assay across Caco-2 cell monolayers; settings: human
Text: Caco-2 cells (RRID:CVCL_0025), a human colon epithelial cancer cell line frequently used as an in vitro intestinal model, were purchased from the American Type Culture Collection (Rockville, MD, USA). […] The receiver side contained transport medium.

P-gp [4] = target: T1, P-gp; assay: ATPase assay with P-gp-expressing membrane vesicles (SB-MDR1 […] ATPase Kit); format: biochemical
Method: The SB-MDR1 […] ATPase Kit, including P-gp-expressing membrane vesicles, was purchased from SOLVO Biotechnology (distributed by KAC Co., Ltd., Kyoto, Japan). This assay kit measures the interaction of test drugs with P-gp. ATPase assay was conducted according to the manufacturer’s instructions and a previous report. Inorganic phosphate liberated by ATP hydrolysis was detected by colorimetric reaction. The optical density (OD) was measured at 590 nm with a microplate reader, Sunrise™ Rainbow (TECAN, Kanagawa, Japan).

[5] = pimozide 0.01 to 100 μM, mean ± S.D.

T1 sequence (P08183 whole entry): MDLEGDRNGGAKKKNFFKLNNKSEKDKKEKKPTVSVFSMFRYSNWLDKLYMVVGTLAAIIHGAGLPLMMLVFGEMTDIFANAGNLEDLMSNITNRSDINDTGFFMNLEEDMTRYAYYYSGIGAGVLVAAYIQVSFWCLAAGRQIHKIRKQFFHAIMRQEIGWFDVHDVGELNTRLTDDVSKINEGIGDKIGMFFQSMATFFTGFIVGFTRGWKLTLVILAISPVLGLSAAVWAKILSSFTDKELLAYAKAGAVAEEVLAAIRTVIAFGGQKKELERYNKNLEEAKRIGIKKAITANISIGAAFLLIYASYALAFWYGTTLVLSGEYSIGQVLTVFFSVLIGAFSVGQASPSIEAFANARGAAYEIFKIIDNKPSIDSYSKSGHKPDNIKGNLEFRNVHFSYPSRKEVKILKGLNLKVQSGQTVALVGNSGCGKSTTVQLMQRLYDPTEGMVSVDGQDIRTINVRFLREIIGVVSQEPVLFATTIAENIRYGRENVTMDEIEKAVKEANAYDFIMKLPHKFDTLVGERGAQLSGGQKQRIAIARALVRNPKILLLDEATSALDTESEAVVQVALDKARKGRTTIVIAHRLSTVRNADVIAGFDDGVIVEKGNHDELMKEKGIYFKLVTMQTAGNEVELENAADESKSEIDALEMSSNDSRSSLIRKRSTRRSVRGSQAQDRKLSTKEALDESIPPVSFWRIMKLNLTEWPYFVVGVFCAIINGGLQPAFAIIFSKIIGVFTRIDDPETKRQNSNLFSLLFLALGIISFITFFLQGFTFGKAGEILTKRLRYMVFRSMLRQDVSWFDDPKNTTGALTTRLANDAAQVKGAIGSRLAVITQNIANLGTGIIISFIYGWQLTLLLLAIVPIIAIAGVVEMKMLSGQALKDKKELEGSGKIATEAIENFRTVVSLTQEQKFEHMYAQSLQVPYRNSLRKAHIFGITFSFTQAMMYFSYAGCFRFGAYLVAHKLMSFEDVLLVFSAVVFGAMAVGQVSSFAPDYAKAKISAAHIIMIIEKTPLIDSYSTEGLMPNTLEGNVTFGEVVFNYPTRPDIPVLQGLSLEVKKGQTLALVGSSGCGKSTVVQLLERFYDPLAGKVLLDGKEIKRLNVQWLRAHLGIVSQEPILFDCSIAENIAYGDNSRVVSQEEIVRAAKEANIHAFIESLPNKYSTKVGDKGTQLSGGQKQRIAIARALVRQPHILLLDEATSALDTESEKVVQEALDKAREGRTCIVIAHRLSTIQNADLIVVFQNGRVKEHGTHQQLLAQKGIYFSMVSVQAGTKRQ

Jmax/Kt (affinity for the transport carrier(s)) (P-gp [1]): 8.0 μL/min/mg protein
Jmax (maximum transport rate for the carrier-mediated transport) (P-gp [1]; [5]): 84.9 ± 8.9 pmol/min/mg protein
Kt (half-saturation concentration) (P-gp [1]; [5]): 10.6 ± 4.7 µM and 10.6 µM
Papp A→B at 120 min, 10 μM [3]: 1.64 ± 0.14 ×10⁻⁶ cm/s
Papp B→A at 120 min, 10 μM [3]: 0.35 ± 0.01 ×10⁻⁶ cm/s
P-gp substrate/inhibitor classification from ATPase assay (P-gp [4]; ATPase activity increased concentration-dependently, reduced in the high concentration range): both a P-gp substrate and an inhibitor
pimozide concentration over which ATPase activity decreased (P-gp [4]; concentration range 0.04 to 100 μM, concentration-dependent elevation at lower concentrations): about 10 μM
Structure (SMILES): O=c1[nH]c2ccccc2n1C1CCN(CCCC(c2ccc(F)cc2)c2ccc(F)cc2)CC1 [Pimozide]
change of blood half-life of pimozide [2]: without any significant change
increase of AUC of pimozide [2]: 37%
increase of Cmax of pimozide [2]: 35%
